Measurements published in ChEMBL document CHEMBL4422644, “Synthesis and evaluation of α-aminoacyl amides as antitubercular agents effective on drug resistant tuberculosis” (Eur J Med Chem, 2019).
Converted amounts (≈) assume the structure as drawn.

Columns and labels:
Format in all cases: functional
[1] = tested on: Mycobacterium tuberculosis; test: Antitubercular activity against Mycobacterium tuberculosis H37Rv after 7 days by alamar blue assay; conditions: 168 h
[2] = tested on: Mycolicibacterium fortuitum; test: Antibacterial activity against Mycobacterium fortuitum after 7 days by alamar blue assay; conditions: 168 h
Pseudomonas aeruginosa = test: Antibacterial activity against Pseudomonas aeruginosa ATCC 27853 after 24 hrs; conditions: ATCC 27853, 24 h
Staphylococcus aureus = test: Antibacterial activity against Staphylococcus aureus ATCC 29213 after 24 hrs; conditions: ATCC 29213, 24 h
[3] = tested on: Mycobacteroides abscessus; test: Antibacterial activity against Mycobacterium abscessus after 7 days by alamar blue assay; conditions: 168 h
Mycobacteroides chelonae = test: Antibacterial activity against Mycobacterium chelonae after 7 days by alamar blue assay; conditions: 168 h
Escherichia coli = test: Antibacterial activity against Escherichia coli ATCC 25922 after 24 hrs; conditions: ATCC 25922, 24 h
Klebsiella pneumoniae = test: Antibacterial activity against Klebsiella pneumoniae ATCC BAA-1705 after 24 hrs; conditions: ATCC BAA-1705, 24 h
Acinetobacter baumannii = test: Antibacterial activity against Acinetobacter baumannii ATCC BAA-1605 after 24 hrs; conditions: ATCC BAA-1605, 24 h

**Q.** With Cc1ccc(C)c(N(C(=O)c2sc(C)nc2C)C(C(=O)NC2CCCCC2)c2ccccc2)c1 (stereo unspecified) as the compound, how does the MIC [1] read?
**A.** > 100 µM

**Q.** Which MIC [1] does the source give for Cc1cc(C)cc(N(C(=O)c2sc(C)nc2C)C(C(=O)NC2CCCCC2)c2ccccc2)c1 (stereo unspecified) here?
**A.** > 100 µM

**Q.** How did the MIC [1] turn out when Cc1nc(C)c(C(=O)N(c2cnc3ccccc3c2)C(C(=O)NC2CCCCC2)c2ccccc2)s1 (stereo unspecified) was run?
**A.** > 100 µM

**Q.** Which MIC [1] does the source give for Cc1ccc(N(C(=O)c2sc(C)nc2C)C(C(=O)NC(C)(C)C)c2ccccc2)cc1 (stereo unspecified) here?
**A.** > 100 µM

**Q.** Cc1nc(C)c(C(=O)N(c2ccccc2O)C(C(=O)NC2CCCCC2)c2ccccc2)s1 (stereo unspecified) was tested. Which MIC [2] did it give?
**A.** > 50 µM

**Q.** And the MIC (Pseudomonas aeruginosa)?
**A.** > 50 µM

**Q.** What about the MIC (Staphylococcus aureus) of the same compound?
**A.** > 50 µM

**Q.** What about the MIC [1] of the same compound?
**A.** 25 µM (≈ 11.6 µg/mL)

**Q.** What about the MIC [3] of the same compound?
**A.** > 50 µM

**Q.** What about the MIC (Mycobacteroides chelonae) of the same compound?
**A.** > 50 µM

**Q.** What about the MIC (Escherichia coli) of the same compound?
**A.** > 50 µM

**Q.** What about the MIC (Klebsiella pneumoniae) of the same compound?
**A.** > 50 µM

**Q.** What about the MIC (Acinetobacter baumannii) of the same compound?
**A.** > 50 µM

**Q.** For Cc1cccc(N(C(=O)c2ccco2)C(C(=O)NC2CCCCC2)c2ccccc2)c1C (stereo unspecified), which MIC [1] is on record?
**A.** > 100 µM

**Q.** How did the MIC [1] turn out when Cc1ccc(N(C(=O)c2sc(C)nc2C)C(C(=O)NC(C)(C)C)c2ccccc2)c(C)c1 (stereo unspecified) was run?
**A.** > 100 µM

**Q.** COc1ccc(C(C(=O)NC2CCCCC2)N(C(=O)c2sc(C)nc2C)c2ccccc2)cc1 (stereo unspecified) was tested. Which MIC [1] did it give?
**A.** > 100 µM

**Q.** Which results are given for Cc1ccc(N(C(=O)c2ccc[nH]2)C(C(=O)NC2CCCCC2)c2ccncc2)cc1 (stereo unspecified)?
**A.** MIC [2]: > 50 µM; MIC (Pseudomonas aeruginosa): > 50 µM; MIC (Staphylococcus aureus): > 50 µM; MIC [1]: 25 µM (≈ 10.4 µg/mL); MIC [3]: > 50 µM; MIC (Mycobacteroides chelonae): > 50 µM; MIC (Escherichia coli): > 50 µM; MIC (Klebsiella pneumoniae): > 50 µM; MIC (Acinetobacter baumannii): > 50 µM

**Q.** With Cc1nc(C)c(C(=O)N(c2cccc(C)c2C)C(C(=O)NC(C)(C)C)c2ccccc2)s1 (stereo unspecified) as the compound, how does the MIC [1] read?
**A.** > 100 µM

**Q.** Which MIC [2] does the source give for Cc1cccc(C)c1N(C(=O)c1ccc[nH]1)C(C(=O)NC1CCCCC1)c1ccccc1 (stereo unspecified) here?
**A.** > 50 µM

**Q.** What about the MIC (Pseudomonas aeruginosa) of the same compound?
**A.** > 50 µM

**Q.** And the MIC (Staphylococcus aureus)?
**A.** > 50 µM

**Q.** What about the MIC [1] of the same compound?
**A.** 25 µM (≈ 10.7 µg/mL)

**Q.** And the MIC [3]?
**A.** > 50 µM

**Q.** What about the MIC (Mycobacteroides chelonae) of the same compound?
**A.** > 50 µM

**Q.** What about the MIC (Escherichia coli) of the same compound?
**A.** > 50 µM

**Q.** And the MIC (Klebsiella pneumoniae)?
**A.** > 50 µM

**Q.** And the MIC (Acinetobacter baumannii)?
**A.** > 50 µM

**Q.** How did the MIC [2] turn out when CCc1ccccc1N(C(=O)c1sc(C)nc1C)C(C(=O)NC1CCCCC1)c1ccccc1 (stereo unspecified) was run?
**A.** > 50 µM

**Q.** And the MIC (Pseudomonas aeruginosa)?
**A.** > 50 µM

**Q.** What about the MIC (Staphylococcus aureus) of the same compound?
**A.** > 50 µM

**Q.** What about the MIC [1] of the same compound?
**A.** 25 µM (≈ 11.9 µg/mL)

**Q.** And the MIC [3]?
**A.** > 50 µM

**Q.** What about the MIC (Mycobacteroides chelonae) of the same compound?
**A.** > 50 µM

**Q.** What about the MIC (Escherichia coli) of the same compound?
**A.** > 50 µM

**Q.** What about the MIC (Klebsiella pneumoniae) of the same compound?
**A.** > 50 µM

**Q.** And the MIC (Acinetobacter baumannii)?
**A.** > 50 µM

**Q.** Which MIC [1] does the source give for Cc1nc(C)c(C(=O)N(c2ccccc2)C(C(=O)NC2CCCCC2)c2cccc(C(F)(F)F)c2)s1 (stereo unspecified) here?
**A.** > 100 µM

**Q.** With COc1ccc(C(C(=O)NC2CCCCC2)N(C(=O)c2sc(C)nc2C)c2ccc(C)cc2)cc1 (stereo unspecified) as the compound, how does the MIC [1] read?
**A.** > 100 µM

**Q.** With Cc1ccc(N(C(=O)c2ccncc2)C(C(=O)NC2CCCCC2)c2ccncc2)cc1 (stereo unspecified) as the compound, how does the MIC [1] read?
**A.** 25 µM (≈ 10.7 µg/mL)

**Q.** How did the MIC [1] turn out when Cc1cccc(N(C(=O)c2cnc3ccccc3c2)C(C(=O)NC2CCCCC2)c2ccccc2)c1C (stereo unspecified) was run?
**A.** > 100 µM

**Q.** Cc1ccc(N(C(=O)c2ccc[nH]2)C(C(=O)NC2CCCCC2)c2ccccc2)cc1 (stereo unspecified) was tested. Which MIC [1] did it give?
**A.** 25 µM (≈ 10.4 µg/mL)

**Q.** Which MIC [1] does the source give for Cc1nc(C)c(C(=O)N(c2ccccc2)C(C(=O)NC2CCCCC2)c2ccccc2)s1 (stereo unspecified) here?
**A.** > 100 µM

**Q.** For Cc1nc(C)c(C(=O)N(c2ccc(C)c(C)c2)C(C(=O)NC2CCCCC2)c2ccccc2)s1 (stereo unspecified), which MIC [1] is on record?
**A.** > 100 µM

**Q.** Cc1cccc(N(C(=O)c2ccnc(Cl)c2)C(C(=O)NC2CCCCC2)c2ccccc2)c1C (stereo unspecified) was tested. Which MIC [1] did it give?
**A.** > 100 µM

**Q.** Which MIC [1] does the source give for Cc1cccc(N(C(=O)c2ccc(Br)o2)C(C(=O)NC2CCCCC2)c2ccccc2)c1C (stereo unspecified) here?
**A.** > 100 µM

**Q.** How did the MIC [1] turn out when Cc1ccc(N(C(=O)c2sc(C)nc2C)C(C(=O)Nc2cccc3ccccc23)c2ccccc2)cc1 (stereo unspecified) was run?
**A.** > 100 µM

**Q.** How did the MIC [1] turn out when Cc1nc(C)c(C(=O)N(c2ccccc2)C(C(=O)NC2CCCCC2)c2cccc(Cl)c2)s1 (stereo unspecified) was run?
**A.** > 100 µM

**Q.** How did the MIC [1] turn out when Cc1ccc(N(C(=O)c2sc(C)nc2C)C(C(=O)NC2CCCCC2)c2ccccc2Cl)cc1 (stereo unspecified) was run?
**A.** > 100 µM

**Q.** How did the MIC [2] turn out when C[C@H]1COc2c(N3CCN(C)CC3)c(F)cc3c(=O)c(C(=O)O)cn1c23 [LEVOFLOXACIN] was run?
**A.** < 0.03 µM

**Q.** What about the MIC (Pseudomonas aeruginosa) of the same compound?
**A.** 1 µM (≈ 0.361 µg/mL)

**Q.** And the MIC (Staphylococcus aureus)?
**A.** 0.25 µM (≈ 0.0903 µg/mL)

**Q.** What about the MIC [3] of the same compound?
**A.** 64 µM (≈ 23.1 µg/mL)

**Q.** What about the MIC (Mycobacteroides chelonae) of the same compound?
**A.** 0.25 µM (≈ 0.0903 µg/mL)

**Q.** And the MIC (Escherichia coli)?
**A.** < 0.03 µM

**Q.** And the MIC (Klebsiella pneumoniae)?
**A.** 64 µM (≈ 23.1 µg/mL)

**Q.** And the MIC (Acinetobacter baumannii)?
**A.** 8 µM (≈ 2.89 µg/mL)

**Q.** For Cc1ccc(N(C(=O)c2sc(C)nc2C)C(C(=O)NC2CCCCC2)c2ccc(C(F)(F)F)cc2)cc1 (stereo unspecified), which MIC [1] is on record?
**A.** > 100 µM

**Q.** For Cc1nc(C)c(C(=O)N(c2ccccc2)C(C(=O)NC2CCCCC2)c2ccc(C(F)(F)F)cc2)s1 (stereo unspecified), which MIC [1] is on record?
**A.** > 100 µM
